Results as given in patent publication US20140005163A1 (NOVARTIS AG, priority 2010, published 2014).
≈ marks a conversion by molar mass, not a printed value.

What was measured:
Solubility at pH 6.8 = assay type: physicochemical; conditions: pH 6.8, aqueous buffer, thermodynamic from solid; read-out: solubility
Outline: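 Following the procedure of Zhou et al. (2007), compound solubility was determined at pH 6.8.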

mTOR = target: T1, mTOR (Homo sapiens, UniProt P42345); test: Biochemical assay for m-TOR by TR-FRET; conditions: 8 μM ATP, 400 nM GFP-4EBP1, 0.5 nM mTOR
T1 construct: purchased Invitrogen Corporation (Carlsbad/CA, USA) PV4753
T1 sequence (P42345 1360-2549 limits assumed): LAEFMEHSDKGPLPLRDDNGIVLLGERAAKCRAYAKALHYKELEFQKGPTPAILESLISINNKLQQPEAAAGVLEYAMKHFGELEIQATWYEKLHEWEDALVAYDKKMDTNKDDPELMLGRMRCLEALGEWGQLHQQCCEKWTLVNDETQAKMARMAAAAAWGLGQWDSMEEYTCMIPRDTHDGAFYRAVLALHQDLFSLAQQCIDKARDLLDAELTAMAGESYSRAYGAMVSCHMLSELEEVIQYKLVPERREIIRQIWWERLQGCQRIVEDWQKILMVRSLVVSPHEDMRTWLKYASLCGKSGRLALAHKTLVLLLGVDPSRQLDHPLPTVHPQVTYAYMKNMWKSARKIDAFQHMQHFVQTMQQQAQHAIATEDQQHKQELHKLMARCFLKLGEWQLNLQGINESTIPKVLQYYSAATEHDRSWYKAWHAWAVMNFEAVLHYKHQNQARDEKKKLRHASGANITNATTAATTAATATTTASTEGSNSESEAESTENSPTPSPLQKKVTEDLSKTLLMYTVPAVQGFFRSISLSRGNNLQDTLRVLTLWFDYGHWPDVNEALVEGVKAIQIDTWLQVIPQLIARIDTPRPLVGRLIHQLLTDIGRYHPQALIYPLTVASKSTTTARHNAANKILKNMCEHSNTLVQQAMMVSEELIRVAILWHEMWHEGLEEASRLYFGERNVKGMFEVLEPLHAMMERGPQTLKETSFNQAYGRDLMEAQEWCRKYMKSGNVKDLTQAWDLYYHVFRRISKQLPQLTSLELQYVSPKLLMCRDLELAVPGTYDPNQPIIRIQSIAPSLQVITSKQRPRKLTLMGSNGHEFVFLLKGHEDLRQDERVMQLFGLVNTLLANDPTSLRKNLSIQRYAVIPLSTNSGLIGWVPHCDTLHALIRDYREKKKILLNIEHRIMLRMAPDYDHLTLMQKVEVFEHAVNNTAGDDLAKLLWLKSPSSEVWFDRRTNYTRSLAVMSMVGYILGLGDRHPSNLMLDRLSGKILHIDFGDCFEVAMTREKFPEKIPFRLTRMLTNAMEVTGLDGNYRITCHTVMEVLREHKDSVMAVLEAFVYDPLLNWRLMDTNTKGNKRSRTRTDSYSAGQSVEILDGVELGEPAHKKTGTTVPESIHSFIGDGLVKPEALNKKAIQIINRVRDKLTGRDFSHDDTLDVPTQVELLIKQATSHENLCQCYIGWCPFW
Outline: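 TR-FRET detection of pThr46 on GFP-4EBP1 (400 nM final) using Tb3+-labelled antibody (0.5 nM), added with EDTA to stop reactions. Reactions ran at rt with 0.5 nM mTOR and 8 μM ATP (final) in HEPES pH 7.5 buffer containing 10 mM MnCl2.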

[1] = test system: PKB Ser473 phosphorylation in Rat1-myr-HA-p110 delta cells; test: Reverse protein array assay, PKB Ser473 phosphorylation in Rat1-myr-p110 delta cells; assay type: cell-based; conditions: read-out: p-PKB IC50
Outline: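 Rat1 cells expressing myristoylated HA-tagged p110 alpha, beta or delta were plated for at least 20 h, then exposed to 8-step serial compound dilutions (0.2% DMSO final) for 30 min at 37 °C. Lysates were spotted at four dilutions on protein microarrays, and relative fluorescence intensity of phospho-Ser473 PKB was calculated.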

Row | solubility (Solubility at pH 6.8) [µg/mL] | IC50 (mTOR) [µM] | IC50 [1] [µM] | Compound
1 | 5 (≈ 11.3 µM) | 0.034 | 0.154 | CNC(=O)c1cc(-c2ccc3ncc4c(c3c2)n(-c2cn(C)nc2C)c(=O)n4C)cnc1N [Example 224.1, 2-Amino-5-[1-(1,3-dimethyl-1H-pyrazol-4-yl)-3-methyl-2-oxo-2,3-dihydro-1H-imidazo[4,5-c]quinolin-8-yl]-N-methyl-nicotinamide]
2 | 10 (≈ 22.9 µM) | < 0.003 | 0.041 | Cn1cc(-n2c(=O)n(C)c3cnc4ccc(-c5cnc(N)c(CO)c5)cc4c32)c(Cl)n1 [Example 169.3, 8-(6-Amino-5-hydroxymethyl-pyridin-3-yl)-1-(3-chloro-1-methyl-1H-pyrazol-4-yl)-3-methyl-1,3-dihydro-imidazo[4,5-c]quinolin-2-one]
3 | 125 (≈ 282 µM) | 0.049 | 0.041 | COC(C)(C)c1cncc(-c2ccc3ncc4c(c3c2)n(-c2cn(C)nc2C)c(=O)n4C)c1 [Example 239, 1-(1,3-Dimethyl-1H-pyrazol-4-yl)-8-[5-(1-methoxy-1-methyl-ethyl)-pyridin-3-yl]-3-methyl-1,3-dihydro-imidazo[4,5-c]quinolin-2-one]
4 | 11 (≈ 23.5 µM) | 0.064 | 0.026 | Cc1nn(C)cc1-n1c(=O)n(C)c2cnc3ccc(-c4cnc5c(c4)C(C)(C)C(=O)N5C)cc3c21 [Example 233, 1-(1,3-Dimethyl-1H-pyrazol-4-yl)-3-methyl-8-(1,3,3-trimethyl-2-oxo-2,3-dihydro-1H-pyrrolo[2,3-b]pyridin-5-yl)-1,3-dihydro-imidazo[4,5-c]quinolin-2-one]
5 | 10 (≈ 22.5 µM) | 0.022 | 0.106 | CCOc1ccc(-c2ccc3ncc4c(c3c2)n(-c2cn(CCO)nc2C)c(=O)n4C)cn1 [Example 103.2, 8-(6-Ethoxy-pyridin-3-yl)-1-[1-(2-hydroxy-ethyl)-3-methyl-1H-pyrazol-4-yl]-3-methyl-1,3-dihydro-imidazo[4,5-c]quinolin-2-one]
